Experimental data from PubChem BioAssay AID1963966 (Molecular Pharmacology Branch, DTP, NCI, 2024).

Tested on: 935938-334-R-J1-PDC spheroids with HUVEC/MSC, viability
Assay: Anticancer human tumor 935938-334-R-J1-PDC patient-derived small intestine adenocarcinoma cell line growth inhibition [PI3K]
Conditions: for viability, T/C: stronger effect = lower value
Procedure, shortened: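 Tumor cells grown as multi-cell spheroids with HUVEC endothelial cells and MSC fibroblast-like stroma were treated with targeted agents combined with inavolisib, alpelisib, duvelisib or copanlisib. Doses fell in half-log steps from near clinical Cmax, else from 10 microM. Viability was measured.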

[1] = curve of first compound, second compound 0.0316 µM
[2] = curve of first compound, second compound 0.1 µM
[3] = curve of first compound, second compound 0.316 µM
[4] = curve of first compound, second compound 1 µM
[5] = curve of first compound, second compound 3.16 µM
[6] = curve of first compound, second compound 10 µM
[7] = second compound 0.0316 µM, first compound 0.0316 µM
[8] = second compound 0.0316 µM, first compound 0.1 µM
[9] = second compound 0.0316 µM, first compound 0.316 µM
[10] = second compound 0.0316 µM, first compound 1 µM
[11] = second compound 0.0316 µM, first compound 3.16 µM
[12] = second compound 0.0316 µM, first compound 10 µM
[13] = second compound 0.1 µM, first compound 0.0316 µM
[14] = second compound 0.1 µM, first compound 0.1 µM
[15] = second compound 0.1 µM, first compound 0.316 µM
[16] = second compound 0.1 µM, first compound 1 µM
[17] = second compound 0.1 µM, first compound 3.16 µM
[18] = second compound 0.1 µM, first compound 10 µM
[19] = second compound 0.316 µM, first compound 0.0316 µM
[20] = second compound 0.316 µM, first compound 0.1 µM
[21] = second compound 0.316 µM, first compound 0.316 µM
[22] = second compound 0.316 µM, first compound 1 µM
[23] = second compound 0.316 µM, first compound 3.16 µM
[24] = second compound 0.316 µM, first compound 10 µM
[25] = second compound 1 µM, first compound 0.0316 µM
[26] = second compound 1 µM, first compound 0.1 µM
[27] = second compound 1 µM, first compound 0.316 µM
[28] = second compound 1 µM, first compound 1 µM
[29] = second compound 1 µM, first compound 3.16 µM
[30] = second compound 1 µM, first compound 10 µM
[31] = second compound 3.16 µM, first compound 0.0316 µM
[32] = second compound 3.16 µM, first compound 0.1 µM
[33] = second compound 10 µM, first compound 0.0316 µM
[34] = second compound 10 µM, first compound 0.1 µM
[35] = curve of first compound, second compound 0.00316 µM
[36] = curve of first compound, second compound 0.01 µM
[37] = second compound 0.00316 µM, first compound 0.0316 µM
[38] = second compound 0.00316 µM, first compound 0.1 µM
[39] = second compound 0.01 µM, first compound 0.0316 µM
[40] = second compound 0.01 µM, first compound 0.1 µM
[41] = second compound 0.0316 µM, first compound 0.000316 µM
[42] = second compound 0.0316 µM, first compound 0.001 µM
[43] = second compound 0.0316 µM, first compound 0.00316 µM
[44] = second compound 0.0316 µM, first compound 0.01 µM
[45] = second compound 0.1 µM, first compound 0.000316 µM
[46] = second compound 0.1 µM, first compound 0.001 µM
[47] = second compound 0.1 µM, first compound 0.00316 µM
[48] = second compound 0.1 µM, first compound 0.01 µM
[49] = second compound 0.316 µM, first compound 0.000316 µM
[50] = second compound 0.316 µM, first compound 0.001 µM
[51] = second compound 0.316 µM, first compound 0.00316 µM
[52] = second compound 0.316 µM, first compound 0.01 µM
[53] = second compound 1 µM, first compound 0.000316 µM
[54] = second compound 1 µM, first compound 0.001 µM
[55] = second compound 1 µM, first compound 0.00316 µM
[56] = second compound 1 µM, first compound 0.01 µM
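Further: compound exposure lasted seven days before viability was read.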
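Wherever viability, T/C is given: percent of vehicle DMSO treated spheroid viability so 100% = untreated.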

SMILES: CNC(=O)c1ccc(N2C(=S)N(c3ccc(C#N)c(C(F)(F)F)c3)C(=O)C2(C)C)cc1F + CC(Nc1ncnc2nc[nH]c12)c1cc2cccc(Cl)c2c(=O)n1-c1ccccc1
- IC50 [1]: > 10000 nM
- IC50 [2]: > 10000 nM
- IC50 [3]: > 10000 nM
- IC50 [4]: > 10000 nM
- IC50 [5]: > 10000 nM
- IC50 [6]: > 10000 nM
- viability, T/C [7]: 102%
- viability, T/C [8]: 94.8%
- viability, T/C [9]: 136%
- viability, T/C [10]: 85.2%
- viability, T/C [11]: 78.2%
- viability, T/C [12]: 133%
- viability, T/C [13]: 98.1%
- viability, T/C [14]: 84.4%
- viability, T/C [15]: 102%
- viability, T/C [16]: 90%
- viability, T/C [17]: 81.3%
- viability, T/C [18]: 84.7%
- viability, T/C [19]: 100%
- viability, T/C [20]: 72.2%
- viability, T/C [21]: 95.3%
- viability, T/C [22]: 83.6%
- viability, T/C [23]: 95%
- viability, T/C [24]: 65.4%
- viability, T/C [25]: 97.4%
- viability, T/C [26]: 83.9%
- viability, T/C [27]: 70.8%
- viability, T/C [28]: 69.7%
- viability, T/C [29]: 96%
- viability, T/C [30]: 73.5%
- viability, T/C [31]: 72.8%
- viability, T/C [32]: 91.4%
- viability, T/C (second compound 3.16 µM, first compound 0.316 µM): 103%
- viability, T/C (second compound 3.16 µM, first compound 1 µM): 99.9%
- viability, T/C (second compound 3.16 µM, first compound 3.16 µM): 61%
- viability, T/C (second compound 3.16 µM, first compound 10 µM): 81.8%
- viability, T/C [33]: 80.8%
- viability, T/C [34]: 92%
- viability, T/C (second compound 10 µM, first compound 0.316 µM): 72.3%
- viability, T/C (second compound 10 µM, first compound 1 µM): 71.6%
- viability, T/C (second compound 10 µM, first compound 3.16 µM): 75.3%
- viability, T/C (second compound 10 µM, first compound 10 µM): 63.9%

SMILES: CC(Nc1ccc2c(c1)OCCn1cc(N3C(=O)OCC3C(F)F)nc1-2)C(N)=O (stereo not given)
- viability, T/C (compound 0.0316 µM): 91% [middle of 8 runs]
- IC50 (compound alone, run of 04/24/2023): > 1000 nM

SMILES: CC(C)n1nc(-c2ccc3oc(N)nc3c2)c2c(N)ncnc21 + CC(Nc1ccc2c(c1)OCCn1cc(N3C(=O)OCC3C(F)F)nc1-2)C(N)=O
- IC50 [35]: 82.2 nM
- IC50 [36]: > 100 nM
- IC50 [1]: 64.6 nM
- IC50 [2]: 44.1 nM
- IC50 [3]: 37.4 nM
- IC50 [4]: 8.33 nM
- viability, T/C (second compound 0.00316 µM, first compound 0.000316 µM): 102%
- viability, T/C (second compound 0.00316 µM, first compound 0.001 µM): 113%
- viability, T/C (second compound 0.00316 µM, first compound 0.00316 µM): 80.9%
- viability, T/C (second compound 0.00316 µM, first compound 0.01 µM): 87.4%
- viability, T/C [37]: 76.6%
- viability, T/C [38]: 43.5%
- viability, T/C (second compound 0.01 µM, first compound 0.000316 µM): 112%
- viability, T/C (second compound 0.01 µM, first compound 0.001 µM): 107%
- viability, T/C (second compound 0.01 µM, first compound 0.00316 µM): 109%
- viability, T/C (second compound 0.01 µM, first compound 0.01 µM): 62.2%
- viability, T/C [39]: 76.9%
- viability, T/C [40]: 51.9%
- viability, T/C [41]: 100%
- viability, T/C [42]: 99.1%
- viability, T/C [43]: 94.6%
- viability, T/C [44]: 84.4%
- viability, T/C [7]: 83.8%
- viability, T/C [8]: 31.6%
- viability, T/C [45]: 102%
- viability, T/C [46]: 96.3%
- viability, T/C [47]: 101%
- viability, T/C [48]: 86.6%
- viability, T/C [13]: 57.3%
- viability, T/C [14]: 32.6%
- viability, T/C [49]: 78.2%
- viability, T/C [50]: 91%
- viability, T/C [51]: 61.5%
- viability, T/C [52]: 61%
- viability, T/C [19]: 61.1%
- viability, T/C [20]: 32.3%
- viability, T/C [53]: 50.6%
- viability, T/C [54]: 63.5%
- viability, T/C [55]: 52%
- viability, T/C [56]: 49.7%
- viability, T/C [25]: 35.2%
- viability, T/C [26]: 31.3%

SMILES: CC(=O)c1c(C)c2cnc(Nc3ccc(N4CCNCC4)cn3)nc2n(C2CCCC2)c1=O + Cc1nc(NC(=O)N2CCCC2C(N)=O)sc1-c1ccnc(C(C)(C)C(F)(F)F)c1
- IC50 [1]: > 100 nM
- IC50 [2]: > 100 nM
- IC50 [3]: 58.2 nM
- IC50 [4]: 27.8 nM
- IC50 [5]: 2.55 nM
- IC50 [6]: < 0.316 nM
- viability, T/C [41]: 104%
- viability, T/C [42]: 95.7%
- viability, T/C [43]: 112%
- viability, T/C [44]: 102%
- viability, T/C [7]: 74.8%
- viability, T/C [8]: 55.9%
- viability, T/C [45]: 94.4%
- viability, T/C [46]: 96.5%
- viability, T/C [47]: 89.4%
- viability, T/C [48]: 78.5%
- viability, T/C [13]: 85.7%
- viability, T/C [14]: 52.8%
- viability, T/C [49]: 87.8%
- viability, T/C [50]: 75%
- viability, T/C [51]: 63.4%
- viability, T/C [52]: 80.7%
- viability, T/C [19]: 51.6%
- viability, T/C [20]: 44.1%
- viability, T/C [53]: 77%
- viability, T/C [54]: 49.8%
- viability, T/C [55]: 63.3%
- viability, T/C [56]: 76.4%
- viability, T/C [25]: 47.9%
- viability, T/C [26]: 31.1%
- viability, T/C (second compound 3.16 µM, first compound 0.000316 µM): 67.2%
- viability, T/C (second compound 3.16 µM, first compound 0.001 µM): 61.8%
- viability, T/C (second compound 3.16 µM, first compound 0.00316 µM): 43.7%
- viability, T/C (second compound 3.16 µM, first compound 0.01 µM): 42%
- viability, T/C [31]: 33.1%
- viability, T/C [32]: 29.9%
- viability, T/C (second compound 10 µM, first compound 0.000316 µM): 39.5%
- viability, T/C (second compound 10 µM, first compound 0.001 µM): 40%
- viability, T/C (second compound 10 µM, first compound 0.00316 µM): 35.3%
- viability, T/C (second compound 10 µM, first compound 0.01 µM): 37.2%
- viability, T/C [33]: 33.3%
- viability, T/C [34]: 26.5%

SMILES: CC1(C)CCC(CN2CCN(c3ccc(C(=O)NS(=O)(=O)c4ccc(NCC5CCOCC5)c([N+](=O)[O-])c4)c(Oc4cnc5[nH]ccc5c4)c3)CC2)=C(c2ccc(Cl)cc2)C1 + CC(Nc1ccc2c(c1)OCCn1cc(N3C(=O)OCC3C(F)F)nc1-2)C(N)=O
- IC50 [35]: 6270 nM
- IC50 [36]: 6000 nM
- IC50 [1]: 5410 nM
- IC50 [2]: 6000 nM
- IC50 [3]: 5040 nM
- IC50 [4]: 3210 nM
- viability, T/C [37]: 85.9%
- viability, T/C [38]: 78.6%
- viability, T/C (second compound 0.00316 µM, first compound 0.316 µM): 106%
- viability, T/C (second compound 0.00316 µM, first compound 1 µM): 115%
- viability, T/C (second compound 0.00316 µM, first compound 3.16 µM): 90.3%
- viability, T/C (second compound 0.00316 µM, first compound 10 µM): 22.5%
- viability, T/C [39]: 88.7%
- viability, T/C [40]: 95.1%
- viability, T/C (second compound 0.01 µM, first compound 0.316 µM): 120%
- viability, T/C (second compound 0.01 µM, first compound 1 µM): 83.1%
- viability, T/C (second compound 0.01 µM, first compound 3.16 µM): 80.8%
- viability, T/C (second compound 0.01 µM, first compound 10 µM): 26.8%
- viability, T/C [7]: 90.5%
- viability, T/C [8]: 78.8%
- viability, T/C [9]: 76.2%
- viability, T/C [10]: 103%
- viability, T/C [11]: 74.4%
- viability, T/C [12]: 22.1%
- viability, T/C [13]: 88.5%
- viability, T/C [14]: 90.9%
- viability, T/C [15]: 84.5%
- viability, T/C [16]: 82%
- viability, T/C [17]: 100%
- viability, T/C [18]: 18.6%
- viability, T/C [19]: 69.6%
- viability, T/C [20]: 71.3%
- viability, T/C [21]: 76.3%
- viability, T/C [22]: 68.8%
- viability, T/C [23]: 72.7%
- viability, T/C [24]: 18.7%
- viability, T/C [25]: 62.6%
- viability, T/C [26]: 59.7%
- viability, T/C [27]: 57%
- viability, T/C [28]: 65.2%
- viability, T/C [29]: 47.6%
- viability, T/C [30]: 20.3%
